Counter-ions that a name gives are not always drawn. Like-named read-outs stand apart in the source and are kept apart here.
What was measured:
Assay in all cases: microbe, parasite or virus in culture
Assay type in all cases: cell-based
vaccinia virus = conditions: read-out: Avg Activity (VV)
La Crosse virus (LACV) = conditions: read-out: Avg Activity (LACV)
Chlamydophila caviae = conditions: Chlamydia caviae, Vero, read-out: Avg Activity (C. Caviae)
influenza virus = conditions: unidentified influenza virus
dengue virus = tested on: dengue virus
Tacaribe virus = conditions: Mammarenavirus tacaribeense, Vero
[1] = A549, read-out: Misc Activity: Influenza
[2] = read-out: Misc Activity: Dengue
[3] = read-out: Misc Activity: Tacaribe
[4] = A549, read-out: Misc Virus Activity: Influenza
[5] = read-out: Misc Virus Activity: Dengue
[6] = read-out: Misc Virus Activity: Tacaribe

SMILES	EC50 (vaccinia virus; Orthopoxvirus vaccinia) [nM]	EC50 (La Crosse virus (LACV); La Crosse virus, Vero) [nM]	EC50 (Chlamydophila caviae) [nM]	other results
CNc1ccc(NC(=S)NC(=O)c2ccc(C(C)(C)C)cc2)cc1 [Compound 21, 4-tert-butyl-N-[[4-(methylamino)phenyl]-carbamothioyl]benzamide hydrochloride]	1000 to 10000	1000 to 10000	< 1000	EC50 (influenza virus; [1]): < 1000 nM; EC50 (dengue virus; [2]): < 1000 nM; EC50 (Tacaribe virus; [3]): < 1000 nM
Cc1ccc(NC(=S)NC(=O)c2ccc(C(C)(C)C)cc2)c(C)c1 [Compound 48, 4-tert-butyl-N-[(2,4-dimethylphenyl)-carbamothioyl]benzamide]	1000 to 10000	< 1000	< 1000	EC50 (influenza virus; [4]): 1000 to 10000 nM; EC50 (dengue virus; [5]): < 1000 nM; EC50 (Tacaribe virus; [6]): < 1000 nM
Cc1ccc(Cl)c(NC(=S)NC(=O)c2ccc(C(C)(C)C)cc2)c1 [Compound 11, 4-tert-butyl-N-[(2-chloro-5-methyl-phenyl)-carbamothioyl]benzamide]	< 1000	1000 to 10000	< 1000	EC50 (influenza virus; [1]): 1000 to 10000 nM; EC50 (dengue virus; [2]): < 1000 nM
CC(C)(C)c1ccc(C(=O)NC(=S)Nc2ccc(Nc3ccccc3)cc2)cc1 [Compound 45, N-[(4-anilinophenyl)-carbamothioyl]-4-tert-butyl-benzamide]	< 1000	1000 to 10000	< 1000	EC50 (influenza virus; [4]): < 1000 nM; EC50 (dengue virus; [5]): < 1000 nM; EC50 (Tacaribe virus; [6]): < 1000 nM
COc1cc(NC(=S)NC(=O)c2ccc(C(C)(C)C)cc2)ccc1N [Compound 1, N-[(4-amino-3-methoxy-phenyl)carbamothioyl]-4-tert-butyl-benzamide]	< 1000	< 1000	< 1000	EC50 (influenza virus; [1]): < 1000 nM
CC(C)(C)c1ccc(C(=O)NC(=S)Nc2cc(C(F)(F)F)ccc2Cl)cc1 [Compound 44, 4-tert-butyl-N-[[2-chloro-5-(trifluoromethyl)phenyl]-carbamothioyl]benzamide]	< 1000	< 1000	< 1000	
COc1cc(NC(=S)NC(=O)c2ccc(C(C)(C)C)cc2)ccc1NC(=N)c1ccccc1Cl [Compound 24, 4-tert-butyl-N-[[4-[(2-chlorobenzene-carboximidoyl)amino]-3-methoxy-phenyl]-carbamothioyl]benzamide]	1000 to 10000	1000 to 10000	< 1000	
CC(C)(C)c1ccc(C(=O)NC(=S)Nc2ccc(NC(=O)c3ccccc3)cc2)cc1 [Compound 43, N-[(4-benzamidophenyl)-carbamothioyl]-4-tert-butyl-benzamide]	< 1000	< 1000	< 1000	
COc1cc(NC(=S)NC(=O)c2ccc(C(C)(C)C)cc2)ccc1NC(=O)c1ccc(CN)cc1 [Compound 12, hydrochloride]	< 1000	> 25000	< 1000	
CC(C)(C)c1ccc(C(=O)NC(=S)Nc2ccccc2)cc1 [Compound 53, 4-tert-butyl-N-(phenylcarbamothioyl)-benzamide]	1000 to 10000	1000 to 10000	< 1000	
CC(C)C(=O)Nc1cccc(NC(=S)NC(=O)c2ccc(C(C)(C)C)cc2)c1 [Compound 57, 4-tert-butyl-N-[[3-(2-methylpropanoylamino)-phenyl]carbamothioyl]-benzamide]	1000 to 10000	1000 to 10000	< 1000	
CC(C)(C)c1ccc(C(=O)NC(=S)Nc2cc(C(C)(C)C)ccc2O)cc1 [Compound 46, 4-tert-butyl-N-[(5-tert-butyl-2-hydroxy-phenyl)-carbamothioyl]benzamide]	< 1000	1000 to 10000	< 1000	
COc1cc(NC(=S)NC(=O)C2CCCCC2)ccc1NC(=O)c1ccccc1Cl [Compound 26, 2-chloro-N-[4-(cyclohexanecarbonyl-carbamothioylamino)-2-methoxy-phenyl]benzamide]	1000 to 10000	> 25000	10000 to 25000	
CCNC(=S)Nc1ccc(NC(=O)c2ccccc2Cl)c(OC)c1 [Compound 33, 2-chloro-N-[4-(ethylcarbamo-thioylamino)-2-methoxy-phenyl]benzamide]	10000 to 25000	> 25000	> 25000	
COc1cc(NC(=S)NC(=O)c2ccc(C(C)(C)C)cc2)ccc1NC(=O)c1ccc(N)cc1 [Compound 32, N-[[4-[(4-aminobenzoyl)amino]-3-methoxy-phenyl]-carbamothioyl]-4-tert-butyl-benzamide hydrochloride]	10000 to 25000	10000 to 25000	< 1000	
CCOc1ccccc1NC(=S)NC(=O)c1ccc(C(C)(C)C)cc1 [Compound 56, 4-tert-butyl-N-[(2-ethoxyphenyl)-carbamothioyl]benzamide]	1000 to 10000	1000 to 10000	< 1000	
CC(C)(C)c1ccc(C(=O)NC(=S)Nc2ccc(NC(=O)c3ccccc3)cc2Cl)cc1 [Compound 7, N-[(4-benzamido-2-chloro-phenyl)carbamothioyl]-4-tert-butyl-benzamide]	< 1000	< 1000	< 1000	

SMILES	EC50 (vaccinia virus; Orthopoxvirus vaccinia) [nM]	EC50 (La Crosse virus (LACV); La Crosse virus, Vero) [nM]	EC50 (Chlamydophila caviae) [nM]	other results
COc1cc(NC(=S)NC(=O)c2ccc(C(C)(C)C)cc2)ccc1NC(C)=O [Compound 20, N-[(4-acetamido-3-methoxy-phenyl)-carbamothioyl]-4-tert-butyl-benzamide]	1000 to 10000	1000 to 10000	< 1000	EC50 (influenza virus; [1]): < 1000 nM; EC50 (dengue virus; [2]): < 1000 nM; EC50 (Tacaribe virus; [3]): < 1000 nM
COC(=O)CC(=O)Nc1ccc(NC(=S)NC(=O)c2ccc(C(C)(C)C)cc2)cc1OC [Compound 35, methyl 3-[4-[(4-tert-butylbenzoyl)carbamo-thioylamino]-2-methoxy-anilino]-3-oxo-propanoate]	10000 to 25000	> 25000	1000 to 10000	
CC(C)(C)c1ccc(C(=O)NC(=S)Nc2ccccc2[N+](=O)[O-])cc1 [Compound 58, 4-tert-butyl-N-[(2-nitrophenyl)carbamothioyl]-benzamide]	1000 to 10000	1000 to 10000	< 1000	
CC(C)(C)c1ccc(C(=O)NC(=S)NC2CCCCC2)cc1 [Compound 64, 4-tert-butyl-N-(cyclohexyl-carbamothioyl)benzamide]	1000 to 10000	1000 to 10000	1000 to 10000	
CCS/C(=N\C(=O)c1ccc(C(C)(C)C)cc1)Nc1cc(C)ccc1Cl [Compound 9, (NZ)-4-tert-butyl-N-[(2-chloro-5-methyl-anilino)-ethylsulfanyl-methylene]benzamide]	< 1000	< 1000	< 1000	
Cc1sc(NC(=S)NC(=O)c2ccc(C(C)(C)C)cc2)c(C#N)c1C [Compound 72, 4-tert-butyl-N-[(3-cyano-4,5-dimethyl-2-thienyl)-carbamothioyl]benzamide]	10000 to 25000	> 25000	10000 to 25000	
Cc1cccc(C)c1NC(=S)NC(=O)c1ccc(C(C)(C)C)cc1 [Compound 71, 4-tert-butyl-N-[(2,6-dimethylphenyl)-carbamothioyl]benzamide]	10000 to 25000	> 25000	< 1000	
Cc1cc(C)cc(NC(=S)NC(=O)c2ccc(C(C)(C)C)cc2)c1 [Compound 65, 4-tert-butyl-N-[(3,5-dimethylphenyl)-carbamothioyl]benzamide]	1000 to 10000	1000 to 10000	1000 to 10000	
CCNC(=S)NC(=O)c1ccc(C(C)(C)C)cc1 [Compound 73, 4-tert-butyl-N-(ethylcarbamothioyl)-benzamide]	10000 to 25000	> 25000	> 25000	
Cc1ccc(NC(=S)NC(=O)c2ccc(C(C)(C)C)cc2)cc1 [Compound 59, 4-tert-butyl-N-(p-tolylcarbamothioyl)-benzamide]	1000 to 10000	1000 to 10000	< 1000	
Cc1ccc(NC(=S)NC(=O)c2ccc(C(C)(C)C)cc2)cc1C [Compound 55, 4-tert-butyl-N-[(3,4-dimethylphenyl)-carbamothioyl]benzamide]	1000 to 10000	1000 to 10000	< 1000	
Cc1ccccc1NC(=S)NC(=O)c1ccc(C(C)(C)C)cc1 [Compound 42, 4-tert-butyl-N-(o-tolylcarbamothioyl)-benzamide]	< 1000	< 1000	< 1000	
COc1cc(NC(=S)NC(=O)c2ccc(C(C)(C)C)cc2)ccc1NC(=O)CCCCC1SCC2NC(=O)NC21 (stereo not shown) [Compound 25, 4-tert-butyl-N-[[3-methoxy-4-[5-(2-oxo-1,3,3a,4,6,6a-hexahydrothieno[3,4-d]imidazol-4-yl)-pentanoylamino]phenyl]-carbamothioyl]benzamide]	1000 to 10000	> 25000	1000 to 10000	
COc1cc(NC(=S)NC(=O)c2ccc(C(C)(C)C)cc2)ccc1N [Compound 18, N-[(4-amino-3-methoxy-phenyl)carbamothioyl]-4-tert-butyl-benzamide hydrochloride]				EC50 (vaccinia virus; hydrochloride): 1000 to 10000 nM; EC50 (La Crosse virus (LACV); hydrochloride): 1000 to 10000 nM; EC50 (dengue virus; [2]): < 1000 nM; EC50 (Tacaribe virus; [3]): < 1000 nM
COc1cc(NC(=S)NC(=O)c2ccc(C(C)(C)C)cc2)ccc1NC(=O)c1ccccc1N [Compound 28, 2-amino-N-[4-[(4-tert-butylbenzoyl)-carbamothioylamino]-2-methoxy-phenyl]benzamide]	1000 to 10000	> 25000	< 1000	
CCN(C(=S)NC(=O)c1ccc(C(C)(C)C)cc1)c1ccc(NC(=O)c2ccccc2Cl)c(OC)c1 [Compound 34, N-[4-[(4-tert-butylbenzoyl)-carbamothioyl-ethyl-amino]-2-methoxy-phenyl]-2-chloro-benzamide]	10000 to 25000	> 25000	1000 to 10000	

Reference: patent US9566254B2, “Inhibitors and methods of inhibiting bacterial and viral pathogens” (priority 2010, dated 2017)
